Assay results published in US20200017495A1, “NOVEL HETEROCYCLIC COMPOUNDS AND THEIR USE IN PREVENTING OR TREATING BACTERIAL INFECTIONS” (priority 2017, published 2020).
“And” between values parts separate entries of the source, which are not always exact repeats. Equal entries are not always repeated. Where two headings read alike, the source gives them in different places.

Assays:
Type in all cases: cell-based
[1] = system: Enterobacter cloacae (ECL) isolates; test: MIC of compounds alone and combined with antibacterials, broth microdilution (CLSI)
Protocol: (§1) Method 2: MIC of Compounds Alone and Combined with Antibacterials Against Bacterial Isolates
(§2) Compounds of the present invention were assessed against genotyped bacterial strains (Table 3, 4) alone or in combination with an antibacterial (Table 2). […] Log phase bacterial suspensions were adjusted to a final density of 5.10^5 CFU/mL in cation-adjusted Mueller-Hinton broth (ca-MHB; Becton-Dickinson and Company) and added to each well (98 μL). Microplates were incubated for 16-20 h at 35° C. in ambient air. The MIC of the compounds was defined as the lowest concentration of said compounds that prevented bacterial growth as read by visual inspection. The MIC of ATB at each compound concentration was defined as the lowest concentration of ATB that prevented bacterial growth as read by visual inspection.

[2] = system: Morganella morganii (MMO) isolates; test: as above
Protocol: as §1, §2

[3] = system: Klebsiella oxytoca (KOX) isolates; test: as above
Protocol: as §1, §2

[4] = system: Providencia stuartii (PST) isolates; test: as above
In short: (§3)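 Visual read-out: MIC is the lowest concentration stopping growth, and in combinations the lowest antibacterial concentration doing so at each fixed compound level. Inoculum 5.10^5 CFU/mL log-phase cells in ca-MHB, 35° C, 16-20 h, ambient air.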

[5] = system: Salmonella typhimurium (STY) isolates; test: as above; details: STY S3371; AF2 @ 8 μg/mL
In short: as §3

[6] = system: Proteus mirabilis (PMI) isolates; test: microbe, parasite or virus in culture
In short: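 Log-phase isolates were inoculated at a final 5.10^5 CFU/mL in cation-adjusted Mueller-Hinton broth and incubated 16-20 h at 35° C in ambient air. MIC was the lowest concentration preventing visible growth; for combinations, the antibacterial MIC was read at each compound concentration.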

SMILES: CC1(C)S[C@@H]2[C@H](NC(=O)[C@H](N)c3ccc(O)cc3)C(=O)N2[C@H]1C(=O)O [AMX, Amoxicillin]
- MIC ATB in combination [1]: >128 µg/mL
- MIC ATB in combination ([1]; ECL 190408, AF2 @ 8 μg/mL): <=0.25 μg/mL
- MIC ATB in combination ([1]; ECL 200322, AF2 @ 8 μg/mL): <0.25 µg/mL
- MIC ATB in combination ([1]; ECL 260253, AF2 @ 8 μg/mL): <0.25 µg/mL
- MIC ATB in combination ([1]; ECL 260323, AF2 @ 8 μg/mL): <0.25 µg/mL
- MIC ATB in combination ([1]; ECL 260508, AF2 @ 8 μg/mL): <0.25 µg/mL
- MIC ATB in combination ([1]; ECL P99, CLA @ 4 μg/mL): >512 µg/mL
- MIC ATB in combination ([1]; ECL UFR12, AF2 @ 8 μg/mL): <0.25 µg/mL
- MIC ATB in combination ([1]; ECL UFR38, AF2 @ 8 μg/mL): <=0.25 μg/mL
- MIC ATB in combination ([1]; ECL UFR51, AF2 @ 8 μg/mL): <0.25 µg/mL
- MIC ATB in combination ([1]; ECL UFR70, AF2 @ 8 μg/mL): 0.5 µg/mL
- MIC ATB in combination ([1]; ECL UFR85, AF2 @ 8 μg/mL): <0.25 µg/mL
- MIC ([1]; strain ECL 2185D, genotype OXA-163): >256 µg/mL
- MIC ([1]; strain ECL 190310, genotype AmpC): >256 µg/mL
- MIC ([1]; strain ECL 190408, genotype TEM-1, CTX-M-15, OXA-1): >256 µg/mL
- MIC ([1]; strain ECL 200138, genotype AmpC): >256 µg/mL
- MIC ([1]; strain ECL 200322, genotype TEM-1, CTX-M-15, OXA-1): >256 µg/mL
- MIC ([1]; strain ECL 260033, genotype AmpC): >256 µg/mL
- MIC ([1]; strain ECL 260253, genotype TEM-1, KPC-3): >256 µg/mL
- MIC ([1]; strain ECL 260323, genotype AmpC): >256 µg/mL
- MIC ([1]; strain ECL 260508, genotype TEM-1, CTX-M-15): >256 µg/mL
- MIC ([1]; strain ECL HAN, genotype OXA-35): >256 µg/mL
- MIC ([1]; strain ECL NEM146383, genotype AmpC): >256 µg/mL
- MIC ([1]; strain ECL P99, genotype AmpC): >1024 µg/mL
- MIC ([1]; strain ECL UFR12, genotype CTX-M-9, OXA-48): >256 µg/mL
- MIC ([1]; strain ECL UFR13, genotype TEM-1, SHV-12, CTX-M-9, OXA-48): >256 µg/mL
- MIC ([1]; strain ECL UFR14, genotype TEM-1, SHV-12, CTX-M-15, DHA-1, OXA-1, OXA-48): >256 µg/mL
- MIC ([1]; strain ECL UFR38, genotype CTX-M-15, NDM-1): >256 µg/mL
- MIC ([1]; strain ECL UFR51, genotype SHV-12, IMP-8): >256 µg/mL
- MIC ([1]; strain ECL UFR60, genotype TEM-1, CTX-M-15, KPC-2): >256 µg/mL
- MIC ([1]; strain ECL UFR70, genotype TEM-1, CTX-M-15, CMY-2, OXA-1, Porin loss): >256 µg/mL
- MIC ([1]; strain ECL UFR84, genotype TEM-1, AmpC, OXA-1): >256 µg/mL
- MIC ([1]; strain ECL UFR85, genotype TEM-1, CTX-M-15, AmpC): >256 µg/mL
- MIC ([1]; strain ECL UFR192, genotype TEM-1, NDM-1, antibiotic alone): >128 µg/mL
- MIC ([1]; strain ECL UFR193, genotype TEM-1, CTX-M-15, OXA-1, NDM-1, RmtC, antibiotic alone): >128 µg/mL
- MIC ([1]; strain ECL UFR194, genotype OXA-48): >128 µg/mL
- MIC ([1]; strain ECL UFR195, genotype TEM-1, CTX-M-15, OXA-1, OXA-48): >128 µg/mL
- MIC ([1]; strain ECL UFR196, genotype TEM-1, CTX-M-15, OXA-1, OXA-48): >128 µg/mL
- MIC ([1]; strain ECL UFR197, genotype TEM-1, CTX-M-15, OXA-1, OXA-48): >128 µg/mL
- MIC ([1]; strain ECL UFR198, genotype TEM-1, SHV-12, CTX-M-15, DHA-1, OXA-1, OXA-48): >128 µg/mL
- MIC ([1]; strain ECL UFR200, genotype TEM-1, SHV-12, KPC-2): >128 µg/mL
- MIC ([1]; strain ECL UFR203, genotype TEM-1, SHV-12, VIM-1, antibiotic alone): >128 µg/mL
- MIC ([1]; strain ECL UFR214, genotype TEM-1, SHV-31, CTX-M-15, VIM-4, antibiotic alone): >128 µg/mL
- MIC ([1]; strain ECL UFR252PT, genotype VIM-2, antibiotic alone): >128 µg/mL
- MIC [2]: >128 µg/mL
- MIC ATB in combination [2]: >128 µg/mL
- MIC ([2]; strain MMO 200321, genotype TEM-1, CTX-M-15, OXA-1): >256 µg/mL
- MIC ([2]; strain MMO UFR144, genotype TEM-1, CTX-M-15): >128 µg/mL
- MIC ([2]; strain MMO UFR240, genotype CTX-M-9): >128 µg/mL
- MIC ([2]; strain MMO UFR241, genotype TEM-1, CTX-M-15): >128 µg/mL
- MIC ([2]; strain MMO UFR242, genotype TEM-52): >128 µg/mL
- MIC [3]: >128 µg/mL
- MIC ATB in combination [3]: >128 µg/mL
- MIC ([3]; strain KOX UFR21, genotype TEM-1, CTX-M-15, OXA-48): >256 µg/mL
- MIC ([3]; strain KOX UFR223, genotype SHV-11, OXA-48): >128 µg/mL
- MIC ([3]; strain KOX UFR224, genotype CTX-M-15, OXA-48): >128 µg/mL
- MIC ATB in combination [4]: 128 µg/mL and >128 µg/mL
- MIC ATB in combination ([4]; PST UFR120, CLA @ 4 μg/mL): 8 µg/mL
- MIC ATB in combination ([4]; PST UFR121, CLA @ 4 μg/mL): 4 µg/mL
- MIC ATB in combination ([4]; PST UFR122, CLA @ 4 μg/mL): 8 µg/mL
- MIC ATB in combination ([4]; PST UFR123, CLA @ 4 μg/mL): 16 µg/mL
- MIC ATB in combination ([4]; PST UFR125, CLA @ 4 μg/mL): 4 µg/mL
- MIC ([4]; strain PST UFR94, genotype CTX-M-14): >128 µg/mL
- MIC ([4]; strain PST UFR95, genotype TEM-24): >128 µg/mL
- MIC ([4]; strain PST UFR98, genotype TEM-1, CMY-6, OXA-1, NDM-1, RmtC): >128 µg/mL
- MIC ([4]; strain PST UFR235, genotype VEB-1): >128 µg/mL
- MIC ATB in combination [5]: <0.25 µg/mL
- MIC ATB in combination ([6]; PMI UFR82, AF2 @ 8 μg/mL): <0.25 µg/mL
- MIC ATB in combination ([6]; PMI UFR126, CLA @ 4 μg/mL): 16 µg/mL
- MIC ATB in combination ([6]; PMI UFR127, CLA @ 4 μg/mL): 32 µg/mL
- MIC ATB in combination ([6]; PMI UFR129, CLA @ 4 μg/mL): 2 µg/mL
- MIC ATB in combination ([6]; PMI UFR237, CLA @ 4 μg/mL): 4 µg/mL
- MIC ([6]; strain PMI UFR82, genotype CMY-2): 256 µg/mL
- MIC ([6]; strain PMI UFR120, genotype TEM-1, SHV-11, CTX-M-14): >128 µg/mL
- MIC ([6]; strain PMI UFR121, genotype TEM-1, TEM-52): >128 µg/mL
- MIC ([6]; strain PMI UFR122, genotype TEM-1, CTX-M-15): >128 µg/mL
- MIC ([6]; strain PMI UFR123, genotype CTX-M-1): >128 µg/mL
- MIC ([6]; strain PMI UFR124, genotype CTX-M-2): >128 µg/mL
- MIC ([6]; strain PMI UFR125, genotype CTX-M-71): >128 µg/mL
- MIC ([6]; strain PMI UFR126, genotype TEM-2, PER-1): >128 µg/mL
- MIC ([6]; strain PMI UFR127, genotype VEB-1): >128 µg/mL
- MIC ([6]; strain PMI UFR128, genotype VEB-1, OXA-10): >128 µg/mL
- MIC ([6]; strain PMI UFR129, genotype TEM-1, VEB-6): >128 µg/mL
- MIC ([6]; strain PMI UFR130, genotype CMY-2): >128 µg/mL
- MIC ([6]; strain PMI UFR131, genotype CMY-16, OXA-1, OXA-10, NDM-1, ArmA): >128 µg/mL
- MIC ([6]; strain PMI UFR132, genotype VEB-6, DHA-1, NDM-1, AphA6, AacA4): >128 µg/mL
- MIC ([6]; strain PMI UFR133, genotype OXA-23): >128 µg/mL
- MIC ([6]; strain PMI UFR237, genotype VEB-6): >128 µg/mL
